Assay results reported in ChEMBL document CHEMBL3525924, “Cytochrome P450 3A-mediated microsomal biotransformation of 1α,25-dihydroxyvitamin D3 in mouse and human liver: drug-related induction and inhibition of catabolism” (Drug Metab Dispos, 2012).

Key:
Format in all cases: ADME
[1] = Drug metabolism in prednisone treated CD1 mouse liver microsomes treated with 20 uM of 1alpha,25(OH)2D3 assessed as metabolite formation after 30 mins by LC/MS analysis in presence of NADPH; settings: 0.5 h
Liver microsome [2] = experiment: Drug level in human liver microsomes assessed as retention time treated with 20 uM of 1alpha,25(OH)2D3 after 30 mins by LC/MS analysis in presence of NADPH; settings: 0.5 h
[3] = Drug metabolism in prednisone treated CD1 mouse liver microsomes assessed as metabolite formation at 20 uM after 30 mins by LC/MS analysis in presence of NADPH and CYP2E inhibitor di-ethyldithiocarbamate; settings: 0.5 h
[4] = Drug metabolism in dexamethasone treated CD1 mouse liver microsomes assessed as metabolite formation at 20 uM after 30 mins by LC/MS analysis in presence of NADPH and CYP2E inhibitor di-ethyldithiocarbamate; settings: 0.5 h
[5] = Drug metabolism in CD1 mouse liver microsomes assessed as metabolite formation at 20 uM after 30 mins by LC/MS analysis in presence of NADPH and CYP2E inhibitor di-ethyldithiocarbamate; settings: 0.5 h
[6] = Drug metabolism in prednisone treated CD1 mouse liver microsomes assessed as metabolite formation at 20 uM after 30 mins by LC/MS analysis in presence of NADPH and CYP2A inhibitor 8-methoxypsoralen; settings: 0.5 h
[7] = Drug metabolism in dexamethasone treated CD1 mouse liver microsomes assessed as metabolite formation at 20 uM after 30 mins by LC/MS analysis in presence of NADPH and CYP2A inhibitor 8-methoxypsoralen; settings: 0.5 h
[8] = Drug metabolism in CD1 mouse liver microsomes assessed as metabolite formation at 20 uM after 30 mins by LC/MS analysis in presence of NADPH and CYP2A inhibitor 8-methoxypsoralen; settings: 0.5 h
[9] = Drug metabolism in prednisone treated CD1 mouse liver microsomes assessed as metabolite formation at 20 uM after 30 mins by LC/MS analysis in presence of NADPH and CYP2B inhibitor orphenadrine; settings: 0.5 h
[10] = Drug metabolism in dexamethasone treated CD1 mouse liver microsomes assessed as metabolite formation at 20 uM after 30 mins by LC/MS analysis in presence of NADPH and CYP2B inhibitor orphenadrine; settings: 0.5 h
[11] = Drug metabolism in CD1 mouse liver microsomes assessed as metabolite formation at 20 uM after 30 mins by LC/MS analysis in presence of NADPH and CYP2B inhibitor orphenadrine; settings: 0.5 h
Liver microsome [12] = experiment: Drug metabolism in human liver microsomes assessed as IC50 for ritonavir-mediated inhibition of metabolite formation at 20 uM after 30 mins by LC/MS analysis; settings: 0.5 h
Liver microsome [13] = experiment: Drug metabolism in human liver microsomes assessed as IC50 for ketoconazole-mediated inhibition of metabolite formation at 20 uM after 30 mins by LC/MS analysis; settings: 0.5 h
Liver microsome [14] = experiment: Drug metabolism in human liver microsomes assessed as IC50 for clarithromycin-mediated inhibition of metabolite formation at 20 uM after 30 mins by LC/MS analysis; settings: 0.5 h
Liver microsome [15] = experiment: Drug metabolism in human liver microsomes assessed as IC50 for tamoxifen-mediated inhibition of metabolite formation at 20 uM after 30 mins by LC/MS analysis; settings: 0.5 h
Liver microsome [16] = experiment: Drug metabolism in human liver microsomes assessed as IC50 for docetaxel-mediated inhibition of metabolite formation at 20 uM after 30 mins by LC/MS analysis; settings: 0.5 h
[17] = Drug level in dexamethasone treated CD1 mouse liver microsomes treated with 20 uM of 1alpha,25(OH)2D3 after 30 mins by LC/MS analysis in presence of NADPH relative to vehicle treated mouse; settings: 0.5 h
[18] = Drug metabolism in prednisone treated CD1 mouse liver microsomes assessed as metabolite formation at 20 uM after 30 mins by LC/MS analysis in presence of NADPH and CYP1A2 inhibitor furafyline; settings: 0.5 h
[19] = Drug metabolism in dexamethasone treated CD1 mouse liver microsomes assessed as metabolite formation at 20 uM after 30 mins by LC/MS analysis in presence of NADPH and CYP1A2 inhibitor furafyline; settings: 0.5 h
[20] = Drug metabolism in CD1 mouse liver microsomes assessed as metabolite formation at 20 uM after 30 mins by LC/MS analysis in presence of NADPH and CYP1A2 inhibitor furafyline; settings: 0.5 h
[21] = Drug metabolism in prednisone treated CD1 mouse liver microsomes assessed as metabolite formation at 20 uM after 30 mins by LC/MS analysis in presence of NADPH and CYP1A1 inhibitor alpha-naphthoflavone; settings: 0.5 h
[22] = Drug metabolism in dexamethasone treated CD1 mouse liver microsomes assessed as metabolite formation at 20 uM after 30 mins by LC/MS analysis in presence of NADPH and CYP1A1 inhibitor alpha-naphthoflavone; settings: 0.5 h
[23] = Drug metabolism in CD1 mouse liver microsomes assessed as metabolite formation at 20 uM after 30 mins by LC/MS analysis in presence of NADPH and CYP1A1 inhibitor alpha-naphthoflavone; settings: 0.5 h
[24] = Drug metabolism in prednisone treated CD1 mouse liver microsomes assessed as metabolite formation at 20 uM after 30 mins by LC/MS analysis in presence of NADPH and CYP2C inhibitor sulfaphenazole; settings: 0.5 h
[25] = Drug metabolism in dexamethasone treated CD1 mouse liver microsomes assessed as metabolite formation at 20 uM after 30 mins by LC/MS analysis in presence of NADPH and CYP2C inhibitor sulfaphenazole; settings: 0.5 h
[26] = Drug metabolism in CD1 mouse liver microsomes assessed as metabolite formation at 20 uM after 30 mins by LC/MS analysis in presence of NADPH and CYP2C inhibitor sulfaphenazole; settings: 0.5 h
[27] = Drug metabolism in prednisone treated CD1 mouse liver microsomes assessed as metabolite formation at 20 uM after 30 mins by LC/MS analysis in presence of NADPH and CYP2D inhibitor quinine; settings: 0.5 h
[28] = Drug metabolism in dexamethasone treated CD1 mouse liver microsomes assessed as metabolite formation at 20 uM after 30 mins by LC/MS analysis in presence of NADPH and CYP2D inhibitor quinine; settings: 0.5 h
[29] = Drug metabolism in CD1 mouse liver microsomes assessed as metabolite formation at 20 uM after 30 mins by LC/MS analysis in presence of NADPH and CYP2D inhibitor quinine; settings: 0.5 h
Cytochrome P450 3A4 [30] = target: T1, Cytochrome P450 3A4 (Homo sapiens, UniProt P08684); experiment: Drug metabolism assessed as 1 uM ketoconazole-mediated inhibition of human CYP3A4-mediated metabolite formation by LC/MS analysis; settings: recombinant enzyme
Cytochrome P450 3A4 [31] = target: T1, Cytochrome P450 3A4; experiment: Drug metabolism assessed as 10 uM ritonavir-mediated inhibition of human CYP3A4-mediated metabolite formation by LC/MS analysis; settings: recombinant enzyme
Cytochrome P450 3A4 [32] = target: T1, Cytochrome P450 3A4; experiment: Drug metabolism assessed as 100 uM tamoxifen-mediated inhibition of human CYP3A4-mediated metabolite formation by LC/MS analysis; settings: recombinant enzyme
Cytochrome P450 3A4 [33] = target: T1, Cytochrome P450 3A4; experiment: Drug metabolism assessed as 100 uM troleandromycin-mediated inhibition of human CYP3A4-mediated metabolite formation by LC/MS analysis; settings: recombinant enzyme

T1 sequence (P08684 whole entry): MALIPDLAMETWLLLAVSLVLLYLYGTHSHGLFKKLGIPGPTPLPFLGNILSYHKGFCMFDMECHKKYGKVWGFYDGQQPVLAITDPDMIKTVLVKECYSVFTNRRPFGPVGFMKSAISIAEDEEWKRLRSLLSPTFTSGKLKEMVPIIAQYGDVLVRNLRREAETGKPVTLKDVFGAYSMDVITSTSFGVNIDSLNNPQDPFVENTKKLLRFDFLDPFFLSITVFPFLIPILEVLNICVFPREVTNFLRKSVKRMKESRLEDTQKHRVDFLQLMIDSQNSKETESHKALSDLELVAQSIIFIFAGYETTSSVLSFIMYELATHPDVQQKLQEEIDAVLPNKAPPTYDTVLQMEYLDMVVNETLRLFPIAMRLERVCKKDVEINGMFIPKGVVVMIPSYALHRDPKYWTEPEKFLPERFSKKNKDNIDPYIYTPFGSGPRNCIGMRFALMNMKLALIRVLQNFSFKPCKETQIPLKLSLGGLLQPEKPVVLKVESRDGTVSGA

SMILES | Drug metabolism [1] | Retention_time (Liver microsome [2]) [min] | Drug metabolism [3] | Drug metabolism [4] | Drug metabolism [5] | Drug metabolism [6] | Drug metabolism [7] | Drug metabolism [8] | Drug metabolism [9] | Drug metabolism [10] | Drug metabolism [11] | IC50 (Liver microsome [12]) [nM] | IC50 (Liver microsome [13]) [nM] | IC50 (Liver microsome [14]) [nM] | IC50 (Liver microsome [15]) [nM] | IC50 (Liver microsome [16]) [nM] | Drug metabolism [18] | Drug metabolism [19] | Drug metabolism [20] | Drug metabolism [21] | other results
C=C1/C(=C\C=C2/CCC[C@]3(C)[C@@H]([C@H](C)CC[C@@H](O)C(C)(C)O)CC[C@@H]23)C[C@@H](O)C[C@@H]1O | metabolite_detected | 8.8 | metabolite_detected | metabolite_detected | metabolite_detected | metabolite_detected | metabolite_detected | metabolite_detected | metabolite_detected | metabolite_detected | metabolite_detected | 28 | 42 | > 30000 | > 40000 | 77 | metabolite_detected | metabolite_detected | metabolite_detected | metabolite_detected | fold change (FC) [17]: 17; Drug metabolism [22]: metabolite_detected; Drug metabolism [23]: metabolite_detected; Drug metabolism [24]: metabolite_detected; Drug metabolism [25]: metabolite_detected; Drug metabolism [26]: metabolite_detected; Drug metabolism [27]: metabolite_detected; Drug metabolism [28]: metabolite_detected; Drug metabolism [29]: metabolite_detected
C=C1/C(=C\C=C2/CCC[C@]3(C)[C@@H]([C@H](C)C[C@H](O)CC(C)(C)O)CC[C@@H]23)C[C@@H](O)C[C@@H]1O | metabolite_detected | 8.5 | metabolite_detected | metabolite_detected | metabolite_detected | metabolite_detected | metabolite_detected | metabolite_detected | metabolite_detected | metabolite_detected | metabolite_detected | 13 | 40 | > 30000 | > 40000 | 38 | metabolite_detected | metabolite_detected | metabolite_detected | metabolite_detected | fold change (FC) [17]: 43; Drug metabolism [22]: metabolite_detected; Drug metabolism [23]: metabolite_detected; Drug metabolism [24]: metabolite_detected; Drug metabolism [25]: metabolite_detected; Drug metabolism [26]: metabolite_detected; Drug metabolism [27]: metabolite_detected; Drug metabolism [28]: metabolite_detected; Drug metabolism [29]: metabolite_detected
C=C1/C(=C\C=C2/CCC[C@]3(C)[C@@H]([C@H](C)C[C@@H](O)CC(C)(C)O)CC[C@@H]23)C[C@@H](O)C[C@@H]1O | metabolite_detected | 9.7 | metabolite_detected | metabolite_detected | metabolite_detected | metabolite_detected | metabolite_detected | metabolite_detected | metabolite_detected | metabolite_detected | metabolite_detected | 16 | 32 | > 30000 | > 40000 | 38 | metabolite_detected | metabolite_detected | metabolite_detected | metabolite_detected | Drug metabolism [17]: metabolite_detected; Drug metabolism [22]: metabolite_detected; Drug metabolism [23]: metabolite_detected; Drug metabolism [24]: metabolite_detected; Drug metabolism [25]: metabolite_detected; Drug metabolism [26]: metabolite_detected; Drug metabolism [27]: metabolite_detected; Drug metabolism [28]: metabolite_detected; Drug metabolism [29]: metabolite_detected
Cc1nnc2n1-c1ccc(Cl)cc1C(c1ccccc1Cl)=NC2 [TRIAZOLAM] | – | – | – | – | – | – | – | – | – | – | – | – | – | – | – | – | – | – | – | – | Drug metabolism (Cytochrome P450 3A4 [30]): metabolite_not_detected; Drug metabolism (Cytochrome P450 3A4 [31]): metabolite_not_detected; Drug metabolism (Cytochrome P450 3A4 [32]): metabolite_not_detected; Drug metabolism (Cytochrome P450 3A4 [33]): metabolite_not_detected
C=C1/C(=C\C=C2/CCC[C@]3(C)[C@@H]([C@H](C)CC[C@H](O)C(C)(C)O)CC[C@@H]23)C[C@@H](O)C[C@@H]1O | metabolite_detected | 9 | metabolite_detected | metabolite_detected | metabolite_detected | metabolite_detected | metabolite_detected | metabolite_detected | metabolite_detected | metabolite_detected | metabolite_detected | 8 | 565 | > 30000 | > 40000 | 12 | metabolite_detected | metabolite_detected | metabolite_detected | metabolite_detected | Drug metabolism [17]: metabolite_detected; Drug metabolism [22]: metabolite_detected; Drug metabolism [23]: metabolite_detected; Drug metabolism [24]: metabolite_detected; Drug metabolism [25]: metabolite_detected; Drug metabolism [26]: metabolite_detected; Drug metabolism [27]: metabolite_detected; Drug metabolism [28]: metabolite_detected; Drug metabolism [29]: metabolite_detected
